These results are taken from PMC11040670, “Mechanistic and Kinetic Insights into Cellular Uptake of Biomimetic Dinitrosyl Iron Complexes and Intracellular Delivery of NO for Activation of Cytoprotective HO-1” (JACS Au, 2024).

The nature of series [1]: Log D7.4 / Log P by n-octanol partitioning (UV–vis). The following applies: for Log D7.4: PBS (pH 7.4)/n-octanol. The class given is physicochemical. As for the experimental part: PBS (pH 7.4) and n-octanol were fully degassed before use. After adding 20 μL of 100 mM stock solution of DNIC–COOH in DMSO to 19.98 mL of PBS (pH 7.4), 2 mL of this 100 μM DNIC–COOH solution was added with 2 mL of n-octanol. This mixture solution was vortexed thoroughly for 30 s and incubated until the two solutions were separated. UV–vis spectra of DNIC–COOH in PBS (pH 7.4) and n-octanol were measured in order to determine Log D7.4 using the equation shown below:[96] [drawing 1] AO is the A362 in n-octanol, and APBS is the A362 in PBS (pH 7.4) after partitioning. Log D7.4 for DNIC–COOMe was determined in a similar manner. On the other hand, the Log P value for DNIC–COOH was measured based on its distribution in ddH2O and n-octanol using a similar procedure.[97],[98]

The test system of another series is N2a. Nature of the series: Intracellular release of NO (DAF-FM fluorescence) in N2a. The following applies: 100 μM DNIC–COOH or 10 μM DNIC–COOMe. Type of series: cell-based, mouse. As for the experimental part:
Intracellular release of NO by DNIC–COOH was validated using the fluorescence probe 4-amino-5-methylamino-2′,7′-difluorofluorescein diacetate (DAF-FM) in combination with fluorescence analysis techniques. Briefly, the MSC cells (or N2a and HCEC cells) were seeded onto a 96-well black plate at a density of 6 × 10^3 cells/well (or 1 × 10^4 cells/well for N2a and 8 × 10^3 cells/well for HCEC cells) and incubated at 37 °C overnight. On the next day, the MSC cells were first treated with 10 μM of DAF-FM (or 5 μM for N2a and HCEC cells) and incubated at 37 °C for 0.5 h. […] Fluorescence intensity of the cells was then recorded using a microplate reader (SpectraMax iD3, Molecular Devices, San Jose, CA) with an excitation wavelength at 485 nm and an emission wavelength at 525 nm. Three independent experiments were executed to measure the time-dependent change of average fluorescence intensity. Time-dependent change of average fluorescence intensity for the MSC/N2a/HCEC cells with sequential treatment of DAF-FM (10 μM for MSC cells, 5 μM for N2a cells, 5 μM for HCEC cells; 0.5 h) and DNIC–COOMe (2.5 μM for MSC cells, 10 μM for N2a cells, 1 μM for HCEC cells) was determined in a similar manner. […]

For series [2], the system named is MSC/N2a/HCEC. Nature of the series: Intracellular release of NO, stated jointly for MSC/N2a/HCEC. The class given is cell-based. As for the experimental part: Intracellular release of NO by DNIC–COOH was validated using the fluorescence probe 4-amino-5-methylamino-2′,7′-difluorofluorescein diacetate (DAF-FM) in combination with fluorescence analysis techniques. Briefly, the MSC cells (or N2a and HCEC cells) were seeded onto a 96-well black plate at a density of 6 × 10^3 cells/well (or 1 × 10^4 cells/well for N2a and 8 × 10^3 cells/well for HCEC cells) and incubated at 37 °C overnight. On the next day, the MSC cells were first treated with 10 μM of DAF-FM (or 5 μM for N2a and HCEC cells) and incubated at 37 °C for 0.5 h. […] Fluorescence intensity of the cells was then recorded using a microplate reader (SpectraMax iD3, Molecular Devices, San Jose, CA) with an excitation wavelength at 485 nm and an emission wavelength at 525 nm. Three independent experiments were executed to measure the time-dependent change of average fluorescence intensity. Time-dependent change of average fluorescence intensity for the MSC/N2a/HCEC cells with sequential treatment of DAF-FM (10 μM for MSC cells, 5 μM for N2a cells, 5 μM for HCEC cells; 0.5 h) and DNIC–COOMe (2.5 μM for MSC cells, 10 μM for N2a cells, 1 μM for HCEC cells) was determined in a similar manner.

Series [3] concerns MSC/N2a/HCEC. The series can be described thus: Cell viability (CCK-8) of MSC/N2a/HCEC treated with DNICs. The following applies: 24 h; for effect on cell viability: N2a/HCEC. The class given is cell-based. As for the experimental part:
Cell viability study of MSC, N2a, and HCEC cells with or without the treatment of DNIC–COOH was performed using a Cell Counting Kit-8 (IMT Formosa New Materials Co., Ltd., Taiwan) according to the manufacturer’s protocol. Briefly, cells were seeded into a 96-well plate at a density of 4 × 10^3 cells/well for MSC, 1 × 10^4 cells/well for N2a, and 8 × 10^3 cells/well for HCEC, respectively, and incubated overnight. On the next day, cells were treated with DNIC–COOH at different concentrations and incubated for 24 h. The culture medium was then removed before the cells were washed with DPBS. After addition of fresh medium containing CCK-8 solution to the cells and incubation for 1–3 h, the absorbance at 450 nm was then measured on a microplate reader (SpectraMax iD3, Molecular Devices, San Jose, CA) with a reference wavelength of 650 nm. Three independent experiments were executed, and the results were represented as mean ± SEM% (n = 3) with the untreated cells (control) as 100% viability. Cell viability studies of MSC/N2a/HCEC cells (1) with the treatment of DNIC–COOMe for 24 h, (2) with the treatment of NEM for 0.5 h, (3) with the treatment of chlorpromazine (CPZ; TCI) for 0.5 h, (4) with the treatment of methyl-β-cyclodextrin (MβCD; Thermo Fisher Scientific) for 0.5 h, (5) with the treatment of genistein (Alfa Chemistry) for 0.5 h, (6) with the sequential treatments of ODQ for 1 h and DNIC–COOH for 3 h (MSC)/10 h (N2a)/6 h (HCEC), and (7) with the cotreatment of PTIO and DNIC–COOH for 3 h (MSC)/10 h (N2a)/6 h (HCEC), respectively, were performed in a similar manner. In addition to CCK-8 assay, a live/dead staining was performed using a ViaQuant Viability/Cytotoxicity Kit (GeneCopoeia, Rockville, MD) according to the manufacturer’s instruction.

Each structure is given as a SMILES string.

As to `O=[N][Fe]1([N]=O)[SH](CCC(=O)O)[Fe]([N]=O)([N]=O)[SH]1CCC(=O)O` (stereo not shown) [DNIC–COOH, [(NO)2Fe(μ-SCH2CH2COOH)2Fe(NO)2]], the “Log D7.4” value in series [1] was −2.3. In addition, the log partition coefficient (Log P) in series [1] (ddH2O/n-octanol) turned out to be 1.2. In addition, the “tmax for intracellular release of NO” value in the series with N2a was 4 h. In addition, the “tmax for intracellular release of free NO” value in the series with MSC/N2a/HCEC [2] was in the range of 4 to 6 h. Moreover, in the series on MSC/N2a/HCEC [3] (MSC/N2a/HCEC), the “biocompatibility in comparison with DNIC–COOMe” value was “improved biocompatibility”. For the same molecule, the “effect on cell viability” value in the series with MSC/N2a/HCEC [3] is on record as “dose-dependent cell-proliferation effect”.
Consider `COC(=O)CC[SH]1[Fe]([N]=O)([N]=O)[SH](CCC(=O)OC)[Fe]1([N]=O)[N]=O` (stereo not shown) [DNIC–COOMe, [(NO)2Fe(μ-SCH2CH2COOCH3)2Fe(NO)2]], for which the “Log D7.4” value in series [1] turned out to be 1.0. In the series with N2a, the “tmax for intracellular release of NO” value came to 2 h. Also, the “tmax for intracellular release of free NO” value in the series on MSC/N2a/HCEC [2] was in the range of 1 to 2 h. For the same molecule, the “effect on cell viability” value in the series on MSC/N2a/HCEC [3] is reported as “dose-dependent cell-proliferation effect”.
